Test system: tyrosinase mRNA
Assay: Tyrosinase mRNA expression by real-time PCR after transfection of WM115 cells with miR-125b inhibitor
Assay type: cell-based, human
Settings: melanoma cell line WM115, 75 uM transfected using liposome, about 60 hours, compared to Comparative Examples 1 and 2
Method: The present inventors used an inhibitor of […] to perform a loss-of-function study of miR-125b, in which the inhibitor of miR-125b is an oligonucleotide having a sequence complementary to that of miR-125b and can bind to miR-125b in cells to inhibit the function of the miR-125b.
75 uM of an inhibitor of miR-125b (model: IH-300595-05-0005, miRIDIAN Hairpin Inhibitor, Human hsa-miR-125b MIMAT0000423/MI0000446 (hsa-miR-125b), Dharmacon, Inc.; Example 2) was transfected into the melanoma cell line WM115 using liposome and allowed to move into the cells. […] After transfection, the cells were cultured in a 5% CO2 incubator at 37° C. for about 60 hours, and then RNA was isolated from the cells using 1 ml of Trizol reagent. Specifically, the cells were lysed using Trizol, and then centrifuged to remove the supernatant, and 0.35 ml of isopropanol was added to the residue to form nucleic acid pellets, which were then washed with 70% EtOH and dissolved in water to isolate RNA. About 1 ug of the RNA was made into cDNA using oligo dT and reverse transcriptase, and the cDNA was subjected to real-time PCR according to the TaqMan method (Applied Biosystems) using a primer (assay ID: Hs01099965_m1) specific to tyrosinase mRNA under the following conditions: reaction at 95° C. for 10 min; and then about 45 cycles of 10 sec at 95° C. and 1 min at 60° C. […]

Example 2: miRIDIAN Hairpin Inhibitor, Human hsa-miR-125b (IH-300595-05-0005, Dharmacon); oligonucleotide with sequence complementary to miR-125b
expression level of tyrosinase mRNA (normalized to GAPDH): significantly increased

From US9303261B2, “Composition for controlling chromogenesis including microRNA” (Amorepacific Corporation, priority 2011, dated 2016)
